# Measured values taken from patent US11053476B2, “Generation of cancer stem cells and use thereof” (EXOSTEM BIOTEC LTD., priority 2016, dated 2021).
# System: CSCs generated from differentiated cancer cells
# Assay: Self-renewal of CSCs (secondary tumorspheres) generated from differentiated cancer cells, factor added to basic protocol
# Format: cell-based
# Details: added to second incubation; data not shown
# Experimental: (§1) In order to generate CSCs in vitro, both primary differentiated cancer cells (primary glioma cells) as well as cells from a cancer cell line (U87 cells) were obtained. Glioma cells and U87 cells were trypsinized, and washed three times with medium +10% FCS. The cells were then resuspended in medium that was brought to a pH of 6.0 and were placed on a rotator and incubated for 45-90 minutes. The cells were then incubated in medium supplemented with EGF and FGF. The cells were optionally kept in mild hypoxic conditions (2-3% oxygen) during this second incubation and were then plated on bacterial plates.
# (§2) Tumorspheres formed on these plates within one week and were removed from the cells that had attached to the dish. The tumorspheres were disaggregated and the cells were re-plated at limiting dilution to generate secondary spheroids. The secondary tumorspheres were then characterized for CSC specific markers, the ability to self-renew and the ability to generate tumors that recapitulate the parental tumors.
# (§3) Knowing that the basic protocol for generating CSCs (acid, EGF/FGF and two rounds of sphere generation) was successful; several modifications to the protocol were examined. […] Second, a wide range of factors were found, that when supplemented to the EGF and FGF containing media, increased the efficacy of the protocol, either by increasing the number of CSCs produced or by increasing their stemness.
row,Compound,efficacy in enhancing dedifferentiation
1,"insulin: insulin, added to the second incubation",effective
2,CCCC(CCC)C(=O)O [Valporic acid],effective

# Same assay, conditions: small molecule added to second incubation; FIG. 6A
row,Compound,effect on rate of self-renewal
1,Nc1ncn([C@H]2C[C@H](O)[C@@H](CO)O2)c(=O)n1 [5-aza-2′-deoxycytidine],increase the rate of self-renewal
2,Nc1nccc2c1ncn2[C@@H]1C=C(CO)[C@@H](O)[C@H]1O [3-deazaneplanocin A],increase the rate of self-renewal
3,C[C@@H](N)[C@H]1CC[C@H](C(=O)Nc2ccncc2)CC1 [Y-27632],increase the rate of self-renewal
4,O=C(O)CCCc1ccccc1 [4-phenylbutyrate],increase the rate of self-renewal
5,CCCCCCCCCCCCCC=CC(O)C(CO)NC(=O)CCCCC (stereo not shown) [Ceramide C6],increase the rate of self-renewal
6,Cc1c[nH]c(-c2cnc(NCCNc3ccc(C#N)cn3)nc2-c2ccc(Cl)cc2Cl)n1 [CHIR99021],increase the rate of self-renewal
7,"CCCCCCCCCCCCCC(=O)O[C@@H]1[C@@H](C)[C@@]2(O)[C@@H](C=C(CO)C[C@]3(O)C(=O)C(C)=C[C@@H]23)[C@@H]2C(C)(C)[C@]12OC(C)=O [PMA, phorbol 12-myristate 13-acetate, reference compound]",increase the rate of self-renewal
8,N[C@@H]1C[C@H]1c1ccccc1 (racemic) [tranylcypromine],increase the rate of self-renewal

# System: Sox2
# Assay: Sox2 expression in generated CSCs, factor added to basic protocol
# Format: cell-based
# Details: PKC activation; FIG. 6B
# Experimental: as §1, §2, §3
Compound,effect on Sox2 expression,effectiveness on Sox2 expression compared with PMA
"CCCCCCCCCCCCCC(=O)O[C@@H]1[C@@H](C)[C@@]2(O)[C@@H](C=C(CO)C[C@]3(O)C(=O)C(C)=C[C@@H]23)[C@@H]2C(C)(C)[C@]12OC(C)=O [PMA, phorbol 12-myristate 13-acetate, reference compound]",increase Sox2 expression,–
PKC alpha: protein kinase C alpha; activators or overexpression,increase Sox2 expression,more effective that PMA

# System: differentiated cancer cells
# Assay: Efficacy and penetrance of dedifferentiation with transcription and secreted factors
# Format: cell-based
# Details: expression in the cells or in their media during second incubation or tumorsphere formation
# Experimental: as §1, §2
# Lastly, several transcription factors and secreted factors that are known to enhance stemness or cancer progression were introduced into the differentiated cells during the second incubation or during tumorsphere formation.
row,Compound,effect on dedifferentiation brought about by the standard protocol
1,NANOG: transcription or secreted factor expressed in the cells or in their media,increase the efficacy and penetrance of the dedifferentiation
2,LIF: transcription or secreted factor expressed in the cells or in their media,increase the efficacy and penetrance of the dedifferentiation
3,STAT3: transcription or secreted factor expressed in the cells or in their media,increase the efficacy and penetrance of the dedifferentiation
